Results taken from ChEMBL document CHEMBL6074674, “Development of Novel Silicon-Based Hydrophobic Tags (SiHyT) for Targeted Proteins Degradation” (J Med Chem, 2024).
Active and inactive are the calls of the source. The rule behind the calls is not given here.

Legend:
[1] = Cmax in ICR mouse at 10 mg/kg, po by LC-MS/MS analysis; assay type: ADME, organism-based; settings: in vivo
[2] = Toxicity in mouse assessed as pathological changes in kidneys administered for 14 days by Hematoxylin-Eosin staining based analysis; settings: in vivo, 336 h, time 14 day
HCC827 [3] = test: Induction of apoptosis in human HCC827 cells at 0.5 to 2 uM incubated for 48 hrs by AnnexinV-FITC/PI staining based flow cytometry; assay type: functional, cell-based; settings: dose 0.5-2 µM
PC-9 [4] = test: Induction of interaction between RNF149/EGFR mutant in human PC-9 cells assessed as disruption of EGFR mutant/HSP90 complex formation at 2 uM measured after 6 hrs by co-immunoprecipitation analysis; assay type: cell-based
[5] = test system: E3 ubiquitin-protein ligase RNF149/Epidermal growth factor receptor (Homo sapiens), P00533+Q8NC42 [UNDEFINED MUTATION]; test: SiHyT-mediated degrader activity at RNF149/EGFR mutant in human HCC827 cells assessed as induction of EGFR degradation by measuring decrease in EGFR expression level at 1 uM pretreated with proteasome inhibitor, MG-132 for 4 hrs followed by incubation with compound for 24 hrs by western blot analysis; assay type: cell-based
Sequence of E3 ubiquitin-protein ligase RNF149/Epidermal growth factor receptor (Homo sapiens), P00533+Q8NC42 [UNDEFINED MUTATION] (P00533 whole entry, looked up, stated change not applied): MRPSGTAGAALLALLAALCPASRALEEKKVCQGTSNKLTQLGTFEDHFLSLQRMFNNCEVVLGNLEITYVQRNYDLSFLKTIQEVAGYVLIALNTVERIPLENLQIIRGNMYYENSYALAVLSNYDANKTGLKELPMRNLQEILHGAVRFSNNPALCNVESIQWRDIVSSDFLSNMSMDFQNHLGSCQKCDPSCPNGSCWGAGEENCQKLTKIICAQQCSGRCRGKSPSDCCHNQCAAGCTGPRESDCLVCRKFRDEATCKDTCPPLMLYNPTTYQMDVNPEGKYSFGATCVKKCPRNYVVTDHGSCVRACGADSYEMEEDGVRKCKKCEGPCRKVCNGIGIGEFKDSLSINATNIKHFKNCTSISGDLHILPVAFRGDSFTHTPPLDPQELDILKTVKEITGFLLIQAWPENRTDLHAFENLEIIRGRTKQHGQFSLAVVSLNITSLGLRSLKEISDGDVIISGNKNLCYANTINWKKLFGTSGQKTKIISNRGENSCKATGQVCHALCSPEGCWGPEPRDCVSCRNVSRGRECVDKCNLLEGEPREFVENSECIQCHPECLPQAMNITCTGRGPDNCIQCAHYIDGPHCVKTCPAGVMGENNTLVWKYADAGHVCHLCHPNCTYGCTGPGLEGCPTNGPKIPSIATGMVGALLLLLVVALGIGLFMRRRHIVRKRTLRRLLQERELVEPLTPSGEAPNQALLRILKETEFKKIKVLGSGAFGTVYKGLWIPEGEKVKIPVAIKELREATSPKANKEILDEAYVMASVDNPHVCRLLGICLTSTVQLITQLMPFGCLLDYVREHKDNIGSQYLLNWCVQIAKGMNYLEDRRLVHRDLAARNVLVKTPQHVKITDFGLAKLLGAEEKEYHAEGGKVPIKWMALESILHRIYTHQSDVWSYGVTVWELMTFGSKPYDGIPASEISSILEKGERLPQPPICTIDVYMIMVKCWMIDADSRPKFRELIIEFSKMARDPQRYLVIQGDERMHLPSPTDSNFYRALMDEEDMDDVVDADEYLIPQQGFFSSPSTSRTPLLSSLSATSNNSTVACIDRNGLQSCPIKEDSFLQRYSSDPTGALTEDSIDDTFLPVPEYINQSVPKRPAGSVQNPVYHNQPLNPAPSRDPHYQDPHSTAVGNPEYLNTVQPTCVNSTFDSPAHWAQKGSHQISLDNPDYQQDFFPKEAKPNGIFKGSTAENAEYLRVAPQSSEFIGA
Sequence of E3 ubiquitin-protein ligase RNF149/Epidermal growth factor receptor (Homo sapiens), P00533+Q8NC42 [UNDEFINED MUTATION] (Q8NC42 whole entry, looked up, stated change not applied): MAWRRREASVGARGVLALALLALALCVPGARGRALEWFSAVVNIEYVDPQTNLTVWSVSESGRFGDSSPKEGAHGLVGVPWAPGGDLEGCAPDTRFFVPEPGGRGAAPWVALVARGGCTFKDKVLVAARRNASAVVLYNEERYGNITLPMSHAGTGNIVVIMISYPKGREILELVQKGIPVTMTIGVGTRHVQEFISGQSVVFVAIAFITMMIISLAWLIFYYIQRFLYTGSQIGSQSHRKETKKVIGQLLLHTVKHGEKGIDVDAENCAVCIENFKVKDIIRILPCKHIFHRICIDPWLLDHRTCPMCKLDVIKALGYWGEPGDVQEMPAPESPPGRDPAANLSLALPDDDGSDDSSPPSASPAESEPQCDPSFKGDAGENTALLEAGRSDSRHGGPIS

HCC827 [6] = test: Inhibition of colony formation in human HCC827 cells assessed as inhibition of malignant clonal growth at 0.5 to 1 uM measured after 7 days by crystal violet staining based analysis; assay type: functional, cell-based; settings: dose 0.5-1 µM, time 7.0 day
PC-9 [7] = test: Induction of cell cycle arrest in human PC-9 cells assessed as increase in cell accumulation at G1 phase at 0.5 to 2 uM incubated for 24 hrs by propidium iodide staining based flow cytometry; assay type: functional; settings: dose 0.5-2 µM
[8] = test system: E3 ubiquitin-protein ligase RNF149/Epidermal growth factor receptor (Homo sapiens), P00533+Q8NC42 [UNDEFINED MUTATION]; test: SiHyT-mediated degrader activity at RNF149/EGFR mutant in human HCC827 cells assessed as induction of EGFR degradation by measuring decrease in half-time of EGFR at 1 uM incubated for 6 to 24 hrs in presence of protein synthesis inhibitor, cycloheximide by western blot analysis; assay type: cell-based; settings: time 6-24 hrs
HCC827 [9] = test: Induction of cell cycle arrest in human HCC827 cells assessed as increase in cell accumulation at G1 phase at 0.5 to 2 uM incubated for 24 hrs by propidium iodide staining based flow cytometry; assay type: functional; settings: dose 0.5-2 µM
PC-9 [10] = test: Binding affinity to RNF149/EGFR mutant in human PC-9 cells at 2 uM incubated for 4 hrs by CETSA analysis; assay type: cell-based
[11] = test system: E3 ubiquitin-protein ligase RNF149/Epidermal growth factor receptor (Homo sapiens), P00533+Q8NC42 [UNDEFINED MUTATION]; test: (§1) SiHyT-mediated degrader activity at RNF149/EGFR mutant in human HCC827 cells assessed as induction of EGFR degradation cells incubated in serum-free media for 8 hrs followed by incubation with compound for 24 hrs by western blot analysis; assay type: cell-based
[12] = molecular target: E3 ubiquitin-protein ligase RNF149/Epidermal growth factor receptor (Homo sapiens, UniProt P00533+Q8NC42); test: as §1; assay type: cell-based
Sequence of E3 ubiquitin-protein ligase RNF149/Epidermal growth factor receptor (P00533 whole entry, looked up, stated change not applied): as the sequence (P00533 whole entry, looked up, stated change not applied) above
Sequence of E3 ubiquitin-protein ligase RNF149/Epidermal growth factor receptor (Q8NC42 whole entry, looked up, stated change not applied): as the sequence (Q8NC42 whole entry, looked up, stated change not applied) above

BEAS-2B = test: Cytotoxicity against human BEAS-2B cells assessed as reduction in cell viability; assay type: toxicity, cell-based
L02 = test: Cytotoxicity against human LO2 cells assessed as reduction in cell viability; assay type: toxicity, cell-based
[13] = test system: E3 ubiquitin-protein ligase RNF149/Epidermal growth factor receptor (Homo sapiens), P00533+Q8NC42 [UNDEFINED MUTATION]; test: SiHyT-mediated degrader activity at RNF149/EGFR mutant in human HCC827 cells assessed as induction of EGFR degradation by measuring decrease in EGFR level at 1 uM measured after 24 hrs by western blot analysis; assay type: cell-based
[14] = test system: E3 ubiquitin-protein ligase RNF149/Epidermal growth factor receptor (Homo sapiens), P00533+Q8NC42 [UNDEFINED MUTATION]; test: SiHyT-mediated degrader activity at RNF149/EGFR mutant in human HCC827 cells assessed as induction of EGFR degradation at 1 uM cells incubated in serum-free media for 8 hrs followed by incubation with compound for 24 hrs by western blot analysis; assay type: cell-based
[15] = test system: E3 ubiquitin-protein ligase RNF149/Epidermal growth factor receptor (Homo sapiens), P00533+Q8NC42 [UNDEFINED MUTATION]; test: SiHyT-mediated degrader activity at […] mutant in human HCC827 cells assessed as decrease in EGFR expression level at 2 uM measured after 12 hrs by proteomics analysis; assay type: cell-based
HCC827 [16] = test: Inhibition of cell invasion in human HCC827 cells at 0.25 to 2 uM incubated for 12 hrs by Transwell assay; assay type: functional, cell-based; settings: dose 0.25-2 µM
PC-9 [17] = test: SiHyT-mediated degrader activity at RNF149/EGFR mutant in human PC-9 cells assessed as induction of EGFR degradation by measuring decrease in EGFR level at 2 uM measured after 9 hrs by western blot analysis; assay type: cell-based
PC-9 [18] = test: SiHyT-mediated degrader activity at RNF149/EGFR mutant in human PC-9 cells assessed as increase in EGFR ubiquitination level at 2 uM pretreated with MG132 for 2 hrs followed by incubation with compound for 9 hrs by immunoprecipitation based western blot analysis; assay type: cell-based
[19] = Cmax in ICR mouse at 1 mg/kg, iv by LC-MS/MS analysis; assay type: ADME, organism-based; settings: in vivo
HUVEC = test: Cytotoxicity against human HUVEC cells assessed as reduction in cell viability; assay type: toxicity, cell-based
MCF-10A = test: Cytotoxicity against human MCF-10A cells assessed as reduction in cell viability; assay type: toxicity, cell-based
PC-9 [20] = test: SiHyT-mediated degrader activity at RNF149/EGFR mutant in human PC-9 cells assessed as induction of EGFR degradation by measuring EGFR expression level at 2 uM incubated for 24 hrs followed by drug wash-out and measured after 24 hrs by western blot analysis; assay type: cell-based
PC-9 [21] = test: Inhibition of cell invasion in human PC-9 cells at 0.5 to 1 uM incubated for 24 hrs by wound healing analysis; assay type: functional, cell-based; settings: dose 0.5-1 µM
[22] = Half life in ICR mouse at 10 mg/kg, po by LC-MS/MS analysis; assay type: ADME, organism-based; settings: in vivo
[23] = Toxicity in mouse assessed as pathological changes in heart administered for 14 days by Hematoxylin-Eosin staining based analysis; assay type: tissue-based; settings: in vivo, 336 h, time 14 day
[24] = Intrinsic clearance of the compound in human liver microsomes at 1 uM in presence of NADPH by LC-MS/MS analysis; assay type: ADME, Microsome; settings: read-out: CLH
[25] = AUC in ICR mouse at 1 mg/kg, iv by LC-MS/MS analysis; assay type: ADME, organism-based; settings: in vivo
[26] = Half life of the compound in mouse liver microsomes at 1 uM in presence of NADPH by LC-MS/MS analysis; assay type: ADME, Microsome
[27] = Half life of the compound in human liver microsomes at 1 uM in presence of NADPH by LC-MS/MS analysis; assay type: ADME, Microsome
[28] = Half life in ICR mouse at 1 mg/kg, iv by LC-MS/MS analysis; assay type: ADME, organism-based; settings: in vivo
[29] = test system: E3 ubiquitin-protein ligase RNF149/Epidermal growth factor receptor (Homo sapiens), P00533+Q8NC42 [UNDEFINED MUTATION]; test: SiHyT-mediated degrader activity at RNF149/EGFR mutant in human HCC827 cells assessed as induction of EGFR degradation by measuring decrease in EGFR level at 1 uM measured after 9 hrs by western blot analysis; assay type: cell-based
PC-9 [30] = test: Antiproliferative activity against human PC-9 cells assessed as decrease in cell survival measured after 72 hrs by CCK-8 assay; assay type: functional, cell-based; settings: PC-9, 72 h
HEK-293T = test: Cytotoxicity against human HEK293T cells assessed as reduction in cell viability; assay type: toxicity, cell-based
[31] = Tmax in ICR mouse at 1 mg/kg, iv by LC-MS/MS analysis; assay type: ADME, organism-based; settings: in vivo
[32] = molecular target: Epidermal growth factor receptor (Homo sapiens) (UniProt P00533); test: Induction of EGFR mutant degradation in human PC-9 cells transfected with RNF149 shRNA at 1 uM by western blot analysis; assay type: cell-based
Sequence of Epidermal growth factor receptor (Homo sapiens) (P00533 whole entry): as the sequence (P00533 whole entry, looked up, stated change not applied) above

[33] = Toxicity in mouse assessed as pathological changes in liver administered for 14 days by Hematoxylin-Eosin staining based analysis; assay type: tissue-based; settings: in vivo, 336 h, time 14 day

- Cmax [1]: 683 ng/mL
- Activity [5]: inactive
- Activity [8]: Active
- Activity [11]: Dose-dependent-effect
- DC50 [12]: 750 nM
- Activity [13]: Active
- Activity [14]: 87.2%
- Activity [15]: Active
- Cmax [19]: 2210 ng/mL
- half-life [22]: 1.29 h
- CLint scaled at 1 µM [24]: 9.3 mL/min/kg
- AUC [25]: 2164.76 ng·mL·h
- half-life at 1 µM [26]: > 1 h
- half-life at 1 µM [27]: > 1 h
- half-life [28]: 2.18 h
- Activity [29]: Active
- Tmax [31]: 4.8 min
- Activity [32]: inactive
Compound: COc1cc2ncnc(Nc3ccc(F)c(Cl)c3)c2cc1OCCn1cc(CCCO[Si](c2ccccc2)(c2ccccc2)C(C)(C)C)nn1
- Activity [2]: Non-toxic
- Activity (HCC827 [3]): Dose-dependent-effect
- Activity (PC-9 [4]): Active
- inhibition (HCC827 [6]): Active
- Activity (PC-9 [7]): Dose-dependent-effect
- Activity (HCC827 [9]): Dose-dependent-effect
- Activity (PC-9 [10]): Active
- Activity (BEAS-2B): Toxic
- Activity (L02): Toxic
- inhibition (HCC827 [16]): Active
- Activity (PC-9 [17]): Active
- Activity (PC-9 [18]): Active
- Activity (HUVEC): Toxic
- Activity (MCF-10A): Toxic
- Activity (PC-9 [20]): inactive
- inhibition (PC-9 [21]): Active
- Activity [23]: Non-toxic
- IC50 (PC-9 [30]): 340 nM
- Activity (HEK-293T): Toxic
- Activity [33]: Non-toxic
